Measurements reported in publication doi:10.1101/679977v1 (bioRxiv, 2019).
Square brackets hold non-standard residues; d marks the D form. Peptide text beside a SMILES is read from it.

Key:
Format in all cases: cell-based
E. coli = experiment: Geometric mean of MICs, selectivity and targeting indices; conditions: for TI Beneficial strains (targeting index): GM(E. coli)/GM(beneficial strains); for TI Beneficial strains (targeting index) / TI Pathogenic strains (targeting index): smaller = greater specificity; for TI Pathogenic strains (targeting index): GM(E. coli)/GM(other pathogenic strains); for SI E. coli (selectivity index): MHC/GM (E. coli), MHC >128 counted as 256 μM, larger = greater cell selectivity; for TI All (TIall, targeting index): all strains, smaller = greater specificity for E. coli; for GM E. coli: geometric mean of MICs against the 6 E. coli strains, >128 counted as 256 μM
Beneficial strains = experiment: Geometric mean of MICs; conditions: geometric mean of MICs against beneficial strains; >128 counted as 256 μM
E. coli ATCC25922 = experiment: Salt, serum, acid and alkaline sensitivity; conditions: for MIC, Control: absence of physiological salts, serum, acid and alkaline; for MIC, FeCl3: in presence of 4μM FeCl3 (final); for MIC, MgCl2: in presence of 1 mM MgCl2; for MIC, KCl: in presence of 4.5 mM KCl (final); for MIC, NaCl: in presence of 150 mM NaCl (final); for MIC, PH=2: peptide incubated at pH=2 for 4 h prior to MIC determination; for MIC, PH=4: peptide incubated at pH=4 for 4 h prior to MIC determination; for MIC, PH=10: peptide incubated at pH=10 for 4 h prior to MIC determination; for MIC, PH=12: peptide incubated at pH=12 for 4 h prior to MIC determination

Compound | TI Beneficial strains (targeting index) (E. coli) | TI Pathogenic strains (targeting index) (E. coli) | SI E. coli (selectivity index) (E. coli) | TI All (TIall, targeting index) (E. coli) | GM E. coli (E. coli) [µM] | GM Beneficial strains (Beneficial strains) [µM] | MIC, Control (E. coli ATCC25922) [µM] | MIC, FeCl3 (E. coli ATCC25922) [µM] | MIC, MgCl2 (E. coli ATCC25922) [µM] | MIC, KCl (E. coli ATCC25922) [µM] | MIC, NaCl (E. coli ATCC25922) [µM] | MIC, PH=2 (E. coli ATCC25922) [µM] | MIC, PH=4 (E. coli ATCC25922) [µM] | MIC, PH=10 (E. coli ATCC25922) [µM] | MIC, PH=12 (E. coli ATCC25922) [µM]
CC[C@H](C)[C@H](NC(=O)CNC(=O)[C@H]1CCCN1C(=O)[C@H](CCCCN)NC(=O)[C@H](Cc1c[nH]c2ccccc12)NC(=O)[C@@H](NC(=O)[C@H](CCCCN)NC(=O)[C@H](CCCCN)NC(=O)[C@@H](N)Cc1c[nH]c2ccccc12)[C@@H](C)CC)C(=O)N[C@@H](CCCCN)C(=O)N[C@@H](CCCCN)C(=O)N[C@@H](Cc1c[nH]c2ccccc12)C(=O)N[C@H](C(=O)N[C@@H](CCCCN)C(=O)NCC(=O)NCC(=O)NCC(=O)N[C@@H](CCCCN)C(=O)O)[C@@H](C)CC [Peptide 5] (H-WKKIWK[dP]GIKKWIKGGGK-OH; N-terminus and C-terminus assumed) | 0.044 | 0.050 | 22.627 | 0.047 | 11.314 | 256.000 | 8 | 8 | 32 | 8 | >64 | 32 | 32 | 16 | 16
CC[C@H](C)[C@H](NC(=O)CNC(=O)[C@H]1CCCN1C(=O)[C@H](CCCCN)NC(=O)[C@H](Cc1c[nH]c2ccccc12)NC(=O)[C@@H](NC(=O)[C@H](CCCCN)NC(=O)[C@H](CCCCN)NC(=O)[C@@H](N)Cc1c[nH]c2ccccc12)[C@@H](C)CC)C(=O)N[C@@H](CCCCN)C(=O)N[C@@H](CCCCN)C(=O)N[C@@H](Cc1c[nH]c2ccccc12)C(=O)N[C@H](C(=O)N[C@@H](CCCCN)C(=O)NCC(=O)NCC(=O)NCC(=O)N[C@@H](CCCCN)C(=O)N[C@@H](CCCCN)C(=O)O)[C@@H](C)CC [Peptide 6] (H-WKKIWK[dP]GIKKWIKGGGKK-OH; N-terminus and C-terminus assumed) | 0.050 | 0.056 | 20.159 | 0.053 | 12.699 | 256.000 | 8 | 8 | 32 | 8 | >64 | 32 | 16 | 16 | 16
CC[C@H](C)[C@H](NC(=O)CNC(=O)[C@H]1CCCN1C(=O)[C@H](CCCCN)NC(=O)[C@H](Cc1c[nH]c2ccccc12)NC(=O)[C@@H](NC(=O)[C@@H](N)CCCCN)[C@@H](C)CC)C(=O)N[C@@H](CCCCN)C(=O)N[C@@H](CCCCN)C(=O)N[C@@H](Cc1c[nH]c2ccccc12)C(=O)O [Peptide 1] (H-KIWK[dP]GIKKW-OH; N-terminus and C-terminus assumed) | 1.000 | 1.000 | 1.000 | 1.000 | 256.000 | 256.000 | >64 | >64 | >64 | >64 | >64 | >64 | >64 | >64 | >64
CC[C@H](C)[C@H](NC(=O)CN)C(=O)NCC(=O)N[C@@H](C)C(=O)N[C@H](C(=O)N[C@@H](CC(C)C)C(=O)N[C@@H](CCCCN)C(=O)N[C@H](C(=O)N[C@@H](CC(C)C)C(=O)N[C@H](C(=O)N[C@H](C(=O)NCC(=O)N[C@@H](CC(C)C)C(=O)N1CCC[C@H]1C(=O)N[C@@H](C)C(=O)N[C@@H](CC(C)C)C(=O)N[C@H](C(=O)N[C@@H](CO)C(=O)N[C@@H](Cc1c[nH]c2ccccc12)C(=O)N[C@H](C(=O)N[C@@H](CCCCN)C(=O)N[C@@H](CCCNC(=N)N)C(=O)N[C@@H](CCCCN)C(=O)N[C@@H](CCCNC(=N)N)C(=O)N[C@@H](CCC(N)=O)C(=O)N[C@@H](CCC(N)=O)C(N)=O)[C@@H](C)CC)[C@@H](C)CC)[C@@H](C)O)[C@@H](C)O)C(C)C)C(C)C [MLT, Melittin, reference compound] | 1.122 | 0.630 | 0.794 | 0.876 | 2.520 | 2.245 |  |  |  |  |  |  |  |  | 
CC[C@H](C)[C@H](NC(=O)CNC(=O)[C@H]1CCCN1C(=O)[C@H](CCCCN)NC(=O)[C@H](Cc1c[nH]c2ccccc12)NC(=O)[C@@H](NC(=O)[C@H](CCCCN)NC(=O)[C@H](CCCCN)NC(=O)[C@@H](N)Cc1c[nH]c2ccccc12)[C@@H](C)CC)C(=O)N[C@@H](CCCCN)C(=O)N[C@@H](CCCCN)C(=O)N[C@@H](Cc1c[nH]c2ccccc12)C(=O)N[C@H](C(=O)N[C@@H](CCCCN)C(=O)O)[C@@H](C)CC [Peptide 2] (H-WKKIWK[dP]GIKKWIK-OH; N-terminus and C-terminus assumed) | 0.063 | 0.070 | 16.000 | 0.067 | 16.000 | 256.000 | 16 | 16 | 32 | 16 | >64 | 32 | 16 | 16 | 32
CC[C@H](C)[C@H](NC(=O)CNC(=O)[C@H]1CCCN1C(=O)[C@H](CCCCN)NC(=O)[C@H](Cc1c[nH]c2ccccc12)NC(=O)[C@@H](NC(=O)[C@H](CCCCN)NC(=O)[C@@H](NC(=O)[C@@H](N)Cc1c[nH]c2ccccc12)[C@@H](C)CC)[C@@H](C)CC)C(=O)N[C@@H](CCCCN)C(=O)N[C@@H](CCCCN)C(=O)N[C@@H](Cc1c[nH]c2ccccc12)C(=O)N[C@H](C(=O)N[C@@H](CCCCN)C(=O)O)[C@@H](C)CC [Peptide 7] (H-WIKIWK[dP]GIKKWIK-OH; N-terminus and C-terminus assumed) | 0.099 | 0.111 | 10.080 | 0.105 | 25.398 | 256.000 | 32 | 32 | >64 | 32 | >64 | 32 | 32 | 32 | 32
CC[C@H](C)[C@H](NC(=O)CNC(=O)[C@H]1CCCN1C(=O)[C@H](CCCCN)NC(=O)[C@H](Cc1c[nH]c2ccccc12)NC(=O)[C@@H](NC(=O)[C@H](CCCCN)NC(=O)[C@H](CCCCN)NC(=O)[C@@H](N)Cc1c[nH]c2ccccc12)[C@@H](C)CC)C(=O)N[C@@H](CCCCN)C(=O)N[C@@H](CCCCN)C(=O)N[C@@H](Cc1c[nH]c2ccccc12)C(=O)N[C@@H](CCCCN)C(=O)N[C@@H](CCCCN)C(=O)O [Peptide 8] (H-WKKIWK[dP]GIKKWKK-OH; N-terminus and C-terminus assumed) | 0.079 | 0.079 | 12.699 | 0.079 | 20.159 | 256.000 | 16 | 16 | 32 | 16 | >64 | 64 | 32 | 16 | 64
